Measured values as given in ChEMBL document CHEMBL1201862, “PubChem BioAssay data set” (2004).
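Cultured in 96-well plates, cells were exposed to test compound for 48 hours across five concentrations. GI50 marks 50% less growth.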 Calls of active or inactive are those of the source. Rule as the data show it: active = GI50 up to about 1.1 µM and inactive = higher.

Experiments:
Assay in all cases: NCI tumour cell line growth inhibition, 48 h
[1] = tested on: SF-295
[2] = tested on: SK-MEL-28
[3] = tested on: OVCAR-4
[4] = tested on: SR
[5] = tested on: SK-MEL-2
[6] = tested on: HCC 2998
[7] = tested on: COLO 205
[8] = tested on: HCT-15
[9] = tested on: CCRF-CEM
[10] = tested on: HL-60
[11] = tested on: OVCAR-3
[12] = tested on: HOP-92
[13] = tested on: UACC-62
[14] = tested on: NCI-H23
[15] = tested on: IGROV-1
[16] = tested on: LOX IMVI

Q: CC(=O)NC(CCCCNC(=O)NCCCl)C(=O)NCc1ccccc1 (stereo not given) was tested. Which GI50 [1] did it give?
A: Its GI50 is > 100 µM (inactive).

Q: What about the GI50 [2] of the same compound?
A: Its GI50 is > 100 µM (inactive).

Q: What about the GI50 [3] of the same compound?
A: The GI50 was > 100 µM (inactive).

Q: What about the GI50 [4] of the same compound?
A: Its GI50 is > 100 µM (inactive).

Q: And the GI50 [5]?
A: Its GI50 is > 100 µM (inactive).

Q: And the GI50 [6]?
A: The GI50 was > 100 µM (inactive).

Q: What about the GI50 [7] of the same compound?
A: Its GI50 is > 100 µM (inactive).

Q: And the GI50 [8]?
A: The GI50 was > 100 µM.

Q: And the GI50 [9]?
A: Its GI50 is > 100 µM (inactive).

Q: What about the GI50 [10] of the same compound?
A: The GI50 was > 100 µM (inactive).

Q: What about the GI50 [11] of the same compound?
A: The GI50 was > 100 µM (inactive).

Q: And the GI50 [12]?
A: Its GI50 is > 100 µM (inactive).

Q: And the GI50 [13]?
A: Its GI50 is > 100 µM (inactive).

Q: And the GI50 [14]?
A: Its GI50 is > 100 µM (inactive).

Q: For COc1ccc(OC)c(NC(=O)C(=O)C(C(C)=O)c2nc3ccc(Cl)cc3nc2O)c1 (stereo not given), which GI50 [15] is on record?
A: The GI50 was > 50 µM (inactive).

Q: What about the GI50 [1] of the same compound?
A: Its GI50 is > 50 µM (inactive).

Q: What about the GI50 [2] of the same compound?
A: Its GI50 is > 50 µM (inactive).

Q: And the GI50 [3]?
A: The GI50 was > 50 µM (inactive).

Q: What about the GI50 [5] of the same compound?
A: Its GI50 is > 50 µM (inactive).

Q: And the GI50 [6]?
A: The GI50 was > 50 µM (inactive).

Q: What about the GI50 [7] of the same compound?
A: Its GI50 is > 50 µM (inactive).

Q: And the GI50 [8]?
A: Its GI50 is > 50 µM.

Q: And the GI50 [9]?
A: The GI50 was > 5 µM (inactive).

Q: What about the GI50 [10] of the same compound?
A: Its GI50 is > 50 µM (inactive).

Q: And the GI50 [11]?
A: The GI50 was > 50 µM (inactive).

Q: And the GI50 [12]?
A: Its GI50 is > 50 µM (inactive).

Q: What about the GI50 [13] of the same compound?
A: The GI50 was > 50 µM (inactive).

Q: And the GI50 [16]?
A: The GI50 was > 50 µM (inactive).

Q: And the GI50 [14]?
A: Its GI50 is > 50 µM (inactive).

Q: How did the GI50 [1] turn out when [N-]=[N+]=Nc1nnc(CCCCc2nnc(N=[N+]=[N-])o2)o1 was run?
A: Its GI50 is > 100 µM (inactive).

Q: And the GI50 [2]?
A: Its GI50 is > 100 µM (inactive).

Q: What about the GI50 [3] of the same compound?
A: Its GI50 is > 100 µM (inactive).

Q: And the GI50 [5]?
A: The GI50 was > 100 µM (inactive).

Q: And the GI50 [6]?
A: Its GI50 is > 100 µM (inactive).

Q: What about the GI50 [7] of the same compound?
A: The GI50 was > 100 µM (inactive).

Q: And the GI50 [8]?
A: The GI50 was > 100 µM.

Q: And the GI50 [9]?
A: Its GI50 is > 100 µM (inactive).

Q: And the GI50 [11]?
A: The GI50 was > 100 µM (inactive).

Q: What about the GI50 [12] of the same compound?
A: Its GI50 is > 100 µM (inactive).

Q: And the GI50 [13]?
A: The GI50 was > 100 µM (inactive).

Q: And the GI50 [16]?
A: The GI50 was > 100 µM (inactive).

Q: And the GI50 [14]?
A: Its GI50 is > 100 µM (inactive).

Q: With COC(=O)/C=C(C)/C=C/C1OC(C)OCC1O (stereo not given) as the compound, how does the GI50 [15] read?
A: Its GI50 is > 100 µM (inactive).

Q: And the GI50 [1]?
A: The GI50 was > 100 µM (inactive).

Q: What about the GI50 [3] of the same compound?
A: The GI50 was > 100 µM (inactive).

Q: And the GI50 [6]?
A: Its GI50 is > 100 µM (inactive).

Q: What about the GI50 [7] of the same compound?
A: The GI50 was > 100 µM (inactive).

Q: And the GI50 [8]?
A: The GI50 was > 100 µM.

Q: And the GI50 [9]?
A: Its GI50 is > 100 µM (inactive).

Q: And the GI50 [10]?
A: The GI50 was > 100 µM (inactive).

Q: And the GI50 [11]?
A: Its GI50 is > 100 µM (inactive).

Q: What about the GI50 [12] of the same compound?
A: Its GI50 is > 100 µM (inactive).

Q: And the GI50 [13]?
A: The GI50 was > 100 µM (inactive).

Q: What about the GI50 [16] of the same compound?
A: Its GI50 is > 100 µM (inactive).

Q: What about the GI50 [14] of the same compound?
A: The GI50 was > 100 µM (inactive).

Q: How did the GI50 [15] turn out when COC(=O)C(=O)C(C(=O)C(=O)Nc1cc([N+](=O)[O-])ccc1[N+](=O)[O-])c1nc2ccc(C(=O)c3ccccc3)cc2nc1O (stereo not given) was run?
A: Its GI50 is 33.6 µM (inactive).

Q: And the GI50 [1]?
A: The GI50 was 31 µM (inactive).

Q: And the GI50 [3]?
A: The GI50 was 49.9 µM (inactive).

Q: And the GI50 [4]?
A: The GI50 was 21.7 µM (inactive).

Q: What about the GI50 [5] of the same compound?
A: The GI50 was 37.2 µM (inactive).

Q: And the GI50 [6]?
A: The GI50 was > 100 µM (inactive).

Q: And the GI50 [7]?
A: The GI50 was 32.6 µM (inactive).

Q: What about the GI50 [8] of the same compound?
A: Its GI50 is 56.5 µM.

Q: And the GI50 [9]?
A: The GI50 was 25.2 µM (inactive).

Q: What about the GI50 [11] of the same compound?
A: The GI50 was 39.2 µM (inactive).

Q: And the GI50 [16]?
A: The GI50 was 19.9 µM (inactive).

Q: And the GI50 [14]?
A: Its GI50 is 25.2 µM (inactive).

Q: For Nc1nc2c(ncn2Cc2ccccc2CCO)c(=O)[nH]1, which GI50 [15] is on record?
A: The GI50 was > 100 µM (inactive).

Q: What about the GI50 [1] of the same compound?
A: Its GI50 is > 100 µM (inactive).

Q: And the GI50 [2]?
A: The GI50 was > 100 µM (inactive).

Q: What about the GI50 [3] of the same compound?
A: The GI50 was > 100 µM (inactive).

Q: What about the GI50 [5] of the same compound?
A: Its GI50 is > 100 µM (inactive).

Q: What about the GI50 [6] of the same compound?
A: The GI50 was > 100 µM (inactive).

Q: And the GI50 [7]?
A: Its GI50 is > 100 µM (inactive).

Q: What about the GI50 [8] of the same compound?
A: The GI50 was > 100 µM.

Q: And the GI50 [9]?
A: The GI50 was > 100 µM (inactive).

Q: And the GI50 [10]?
A: The GI50 was > 100 µM (inactive).

Q: What about the GI50 [11] of the same compound?
A: The GI50 was > 100 µM (inactive).

Q: And the GI50 [12]?
A: Its GI50 is > 100 µM (inactive).

Q: And the GI50 [13]?
A: The GI50 was > 100 µM (inactive).

Q: What about the GI50 [16] of the same compound?
A: The GI50 was > 100 µM (inactive).

Q: What about the GI50 [14] of the same compound?
A: The GI50 was > 100 µM (inactive).

Q: Which GI50 [15] does the source give for O=C1NC(c2ccc(O)cc2)C2CCC1C2 (stereo not given) here?
A: The GI50 was > 100 µM (inactive).

Q: And the GI50 [1]?
A: Its GI50 is > 100 µM (inactive).

Q: What about the GI50 [2] of the same compound?
A: The GI50 was > 100 µM (inactive).

Q: And the GI50 [3]?
A: Its GI50 is > 100 µM (inactive).

Q: What about the GI50 [4] of the same compound?
A: Its GI50 is > 100 µM (inactive).

Q: And the GI50 [5]?
A: The GI50 was > 100 µM (inactive).

Q: What about the GI50 [6] of the same compound?
A: The GI50 was > 100 µM (inactive).

Q: What about the GI50 [7] of the same compound?
A: Its GI50 is > 100 µM (inactive).

Q: What about the GI50 [9] of the same compound?
A: The GI50 was > 100 µM (inactive).

Q: And the GI50 [10]?
A: The GI50 was > 100 µM (inactive).

Q: What about the GI50 [11] of the same compound?
A: The GI50 was > 100 µM (inactive).

Q: And the GI50 [12]?
A: The GI50 was > 100 µM (inactive).

Q: And the GI50 [13]?
A: The GI50 was > 100 µM (inactive).

Q: What about the GI50 [14] of the same compound?
A: The GI50 was > 100 µM (inactive).

Q: CCN(CC)c1ccc(/N=N/c2ccc(-c3nc4cccn(C)c-4n3)cc2)cc1 was tested. Which GI50 [15] did it give?
A: The GI50 was 10.7 µM (inactive).

Q: And the GI50 [1]?
A: Its GI50 is 5.04 µM (inactive).

Q: What about the GI50 [3] of the same compound?
A: Its GI50 is 11.2 µM (inactive).

Q: What about the GI50 [4] of the same compound?
A: The GI50 was 2.51 µM (inactive).

Q: What about the GI50 [5] of the same compound?
A: Its GI50 is 17.5 µM (inactive).

Q: And the GI50 [7]?
A: Its GI50 is 14.3 µM (inactive).

Q: And the GI50 [8]?
A: Its GI50 is 3.75 µM.

Q: And the GI50 [9]?
A: Its GI50 is 3.75 µM (inactive).

Q: What about the GI50 [10] of the same compound?
A: The GI50 was 1.75 µM (inactive).

Q: What about the GI50 [11] of the same compound?
A: The GI50 was 10.5 µM (inactive).

Q: And the GI50 [12]?
A: The GI50 was 11.7 µM (inactive).

Q: What about the GI50 [13] of the same compound?
A: The GI50 was 11.9 µM (inactive).

Q: What about the GI50 [16] of the same compound?
A: The GI50 was 2.52 µM (inactive).

Q: And the GI50 [14]?
A: The GI50 was 11.4 µM (inactive).
